# Laboratory results: ChEMBL document CHEMBL1201862, “PubChem BioAssay data set” (2004)
# Activity calls are given as the source filed them.
# How the values were obtained:
# [1] = target: Beta-galactosidase (Escherichia coli, UniProt Q8VNN2); assay: Dose response counterscreen for EBI2 assay utilizing the enzyme, b-galactosidase.; format: functional
# [2] = target: T1, G-protein coupled receptor 183 (Homo sapiens, UniProt P32249); assay: SAR confirmation of small molecule antagonists of the EBI2 receptor via a luminescent beta-arrestin assa.; format: functional
# T1 sequence (P32249 whole entry): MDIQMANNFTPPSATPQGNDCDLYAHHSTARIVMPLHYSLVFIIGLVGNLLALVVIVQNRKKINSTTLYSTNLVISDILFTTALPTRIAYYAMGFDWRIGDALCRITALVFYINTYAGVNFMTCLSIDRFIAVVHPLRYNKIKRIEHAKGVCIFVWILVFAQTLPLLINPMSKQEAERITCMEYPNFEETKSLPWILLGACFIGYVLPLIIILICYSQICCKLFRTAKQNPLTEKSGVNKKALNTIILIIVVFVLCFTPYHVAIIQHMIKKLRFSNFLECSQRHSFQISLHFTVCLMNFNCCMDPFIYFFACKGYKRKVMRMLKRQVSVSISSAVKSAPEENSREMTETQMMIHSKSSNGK
# [3] = target: T1, G-protein coupled receptor 183; assay: Dose-response confirmation of small molecule antagonists of the EBI2 receptor via a luminescent beta-arrestin assay.; format: functional
# [4] = glucagon-like peptide-1 release potency in STC-1, concentration-response, half-maximal inhibitory concentration in the STC-1 line (AID 1117345); format: functional, cell-based
# [5] = Potency on glucagon-like peptide 1 release, dose-response in NCI-H716 cell line, half maximal inhibitory concentration (AID 1117344); format: functional, cell-based
# [6] = IC50 of insulin release inhibition, rat insulinoma INS-1E line, 5 mM glucose, cell-based (AID 1117331); format: functional
# [7] = viability loss in HEK293 cells – cell-based, luminescence, dry powder, set 12, cytotoxicity control, dose response (AID 743354); format: functional
# [8] = BioA aminotransferase inhibition, coupled fluorescent readout – biochemical, coupled fluorescence displacement, 20-point, dry powder, dose response (AID 743357); format: functional
# [9] = target: T2, Methionyl-tRNA synthetase, putative (Trypanosoma brucei brucei, UniProt Q38C91); format: functional, Trypanosoma brucei brucei strain 927/4 GUTat10.1
# T2 sequence (Q38C91 whole entry): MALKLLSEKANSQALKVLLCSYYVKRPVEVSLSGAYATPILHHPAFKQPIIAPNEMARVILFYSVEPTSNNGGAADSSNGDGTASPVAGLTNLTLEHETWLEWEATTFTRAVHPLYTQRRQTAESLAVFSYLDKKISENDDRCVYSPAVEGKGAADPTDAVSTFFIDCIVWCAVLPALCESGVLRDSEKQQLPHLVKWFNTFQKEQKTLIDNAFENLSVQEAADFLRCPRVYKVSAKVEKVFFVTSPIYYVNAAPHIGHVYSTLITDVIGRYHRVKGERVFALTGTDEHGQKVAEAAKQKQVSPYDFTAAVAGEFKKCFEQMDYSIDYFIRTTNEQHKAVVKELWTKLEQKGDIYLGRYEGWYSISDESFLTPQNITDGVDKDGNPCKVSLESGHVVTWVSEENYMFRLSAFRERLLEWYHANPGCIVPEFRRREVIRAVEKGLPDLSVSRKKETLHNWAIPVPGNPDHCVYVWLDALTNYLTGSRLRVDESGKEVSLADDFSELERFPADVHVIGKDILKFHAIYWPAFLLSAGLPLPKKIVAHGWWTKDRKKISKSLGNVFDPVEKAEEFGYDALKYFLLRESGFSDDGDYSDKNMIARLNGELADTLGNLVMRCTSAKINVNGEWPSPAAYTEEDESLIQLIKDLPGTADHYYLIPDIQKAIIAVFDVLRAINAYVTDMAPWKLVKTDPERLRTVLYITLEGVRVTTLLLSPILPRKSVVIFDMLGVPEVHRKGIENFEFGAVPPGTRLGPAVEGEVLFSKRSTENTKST
# [10] = target: T2, Methionyl-tRNA synthetase, putative; format: functional, Trypanosoma brucei brucei strain 927/4 GUTat10.1; remark: listed apart in the source
# [11] = Counterscreen for inhibitors of Trypanosoma brucei methionyl tRNA synthetase (MetRS): Luminescence-based cell-based high throughput dose response assay to identify compounds that are cytotoxic to Jurkat human T lymphocyte cells.; format: functional
# [12] = Late stage counterscreen for inhibitors of Trypanosoma brucei methionyl tRNA synthetase (MetRS): Luminescence-based cell-based high throughput dose response assay to identify compounds that are cytotoxic to Jurkat human T lymphocyte cells.; format: functional
# [13] = target: Paired box protein Pax-8 (Homo sapiens, UniProt Q06710); assay: PAX8 transcriptional activity inhibition in RMG-I – RMG-I cells, luciferase, cherry-pick, dose response (AID 687027); format: functional, cell-based;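 also: luciferase reporter driven by Pax8 target thyroperoxidase promoter measured by SteadyGlo luminescence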
# Sequence of Paired box protein Pax-8 (Q06710 whole entry): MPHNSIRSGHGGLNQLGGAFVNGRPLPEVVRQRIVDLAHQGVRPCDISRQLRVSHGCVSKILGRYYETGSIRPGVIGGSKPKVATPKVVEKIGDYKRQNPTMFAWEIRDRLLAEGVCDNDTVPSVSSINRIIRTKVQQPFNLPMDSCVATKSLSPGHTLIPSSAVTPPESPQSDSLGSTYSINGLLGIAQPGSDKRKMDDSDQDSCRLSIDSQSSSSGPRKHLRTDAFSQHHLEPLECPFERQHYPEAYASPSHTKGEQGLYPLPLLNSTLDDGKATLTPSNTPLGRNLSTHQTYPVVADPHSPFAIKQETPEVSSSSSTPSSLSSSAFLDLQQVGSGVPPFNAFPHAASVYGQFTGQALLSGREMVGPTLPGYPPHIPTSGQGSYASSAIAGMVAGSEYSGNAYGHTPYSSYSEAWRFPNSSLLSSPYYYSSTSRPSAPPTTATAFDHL
# [14] = fluconazole-exposed Candida albicans growth modulators – fluorescence, retest, confirmation (AID 2467); format: functional, cell-based
# [15] = OVCAR-3 cell viability loss – plate reader, dry powder samples, PAX8 inhibitor project, dose response (AID 743044); format: functional, cell-based
# [16] = PAX8-dependent cell viability loss – plate reader, dry powder, dose response (AID 743049); format: functional, cell-based
# [17] = NIH-3T3 fibroblast cytotoxicity, dose response, cytotoxicity control, cell-based, fluorescence, Alamar Blue, secondary assay (AID 2327); format: functional;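 also: NIH-3T3 mouse fibroblasts cultured with fluconazole at 8 µg/mL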
# [18] = IGROV1 cell killing – plate reader, dry powder samples, PAX8 inhibitor project, dose response (AID 743043); format: functional, cell-based; details: IGROV-1
# [19] = inhibitors acting on PAX2 in cells – cell-based, plate reader, dry powder samples, selectivity assay for PAX8 inhibitor project, dose response (AID 743048); format: functional;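 also: HEK293 cells carrying a WT1 promoter luciferase reporter driven by expressed Pax2; potency is for inhibition of Pax2 driven reporter signal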
# [20] = COV434 cell viability loss – plate reader, dry powder, SA7, cytotoxicity control for PAX8 inhibitor project, dose response (AID 743145); format: functional, cell-based
# [21] = OVCAR4 cell viability loss – plate reader, dry powder, SA11, cytotoxicity control for PAX8 inhibitor project, dose response (AID 743150); format: functional, cell-based; details: OVCAR-4
# [22] = OV-90 cell viability loss – plate reader, dry powder, SA8, PAX8 inhibitor project, dose response (AID 743149); format: functional, cell-based
# [23] = A Cell-Based Confirmatory Screen for Compounds that Inhibit VEEV, TC-83 (8).; format: functional
# [24] = A Cell-Based Confirmatory Screen for Compounds that Inhibit VEEV, TC-83 (5).; format: functional
# [25] = Dd2 malaria parasite growth inhibition potency – SYBR Green, dry powder samples, dose response (AID 1159566); format: functional, cell-based;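 also: potency for growth inhibition with lower SYBR green DNA signal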
# [26] = Plasmodium falciparum Dd2 Sybr green parasite growth Measured in Cell-Based and Microorganism Combination System Using Plate Reader - 2153-01_Inhibitor_Dose_DryPowder_Activity_Set3.; format: functional
# [27] = P. falciparum Dd2 growth inhibitors, dose response, SYBR Green, cherry-picked samples (AID 1159567); format: functional, cell-based
# [28] = growth inhibition of yeast DHODH-expressing 3D7 parasites – SYBR Green, dry powder samples, dose response (AID 1159570); format: functional, cell-based;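 also: parasite growth measured after 72 hours of compound exposure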
# [29] = toxicity to human HepG2 hepatoma cells – cell-based, plate reader, dry powder samples, cytotoxicity control, dose response (AID 1159569); format: functional;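 also: inhibitor potency with signal falling toward the positive control level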
# [30] = growth inhibition of PfATP4-mutant resistant parasites – NITD609-resistant line, SYBR Green, dry powder, dose response (AID 1159571); format: functional, cell-based;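 also: parasites synchronized at ring stage by sorbitol before testing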
# [31] = target: NAD-dependent protein deacylase sirtuin-5, mitochondrial (Homo sapiens, UniProt Q9NXA8); assay: blockers of sirtuin-5 peptide desuccinylation – biochemical, fluorescence imaging, cherry-pick, set 6, dose response (AID 720597)
# Sequence of NAD-dependent protein deacylase sirtuin-5, mitochondrial (Q9NXA8 whole entry): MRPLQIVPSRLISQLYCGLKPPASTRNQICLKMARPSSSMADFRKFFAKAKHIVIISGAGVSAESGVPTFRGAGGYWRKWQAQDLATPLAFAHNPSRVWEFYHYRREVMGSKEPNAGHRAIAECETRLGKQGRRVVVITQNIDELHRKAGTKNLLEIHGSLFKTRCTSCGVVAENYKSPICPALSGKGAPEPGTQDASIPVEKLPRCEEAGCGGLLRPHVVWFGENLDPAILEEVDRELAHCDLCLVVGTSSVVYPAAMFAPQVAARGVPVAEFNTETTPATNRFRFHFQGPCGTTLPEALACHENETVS
# Sequence of Beta-galactosidase (Q8VNN2 whole entry): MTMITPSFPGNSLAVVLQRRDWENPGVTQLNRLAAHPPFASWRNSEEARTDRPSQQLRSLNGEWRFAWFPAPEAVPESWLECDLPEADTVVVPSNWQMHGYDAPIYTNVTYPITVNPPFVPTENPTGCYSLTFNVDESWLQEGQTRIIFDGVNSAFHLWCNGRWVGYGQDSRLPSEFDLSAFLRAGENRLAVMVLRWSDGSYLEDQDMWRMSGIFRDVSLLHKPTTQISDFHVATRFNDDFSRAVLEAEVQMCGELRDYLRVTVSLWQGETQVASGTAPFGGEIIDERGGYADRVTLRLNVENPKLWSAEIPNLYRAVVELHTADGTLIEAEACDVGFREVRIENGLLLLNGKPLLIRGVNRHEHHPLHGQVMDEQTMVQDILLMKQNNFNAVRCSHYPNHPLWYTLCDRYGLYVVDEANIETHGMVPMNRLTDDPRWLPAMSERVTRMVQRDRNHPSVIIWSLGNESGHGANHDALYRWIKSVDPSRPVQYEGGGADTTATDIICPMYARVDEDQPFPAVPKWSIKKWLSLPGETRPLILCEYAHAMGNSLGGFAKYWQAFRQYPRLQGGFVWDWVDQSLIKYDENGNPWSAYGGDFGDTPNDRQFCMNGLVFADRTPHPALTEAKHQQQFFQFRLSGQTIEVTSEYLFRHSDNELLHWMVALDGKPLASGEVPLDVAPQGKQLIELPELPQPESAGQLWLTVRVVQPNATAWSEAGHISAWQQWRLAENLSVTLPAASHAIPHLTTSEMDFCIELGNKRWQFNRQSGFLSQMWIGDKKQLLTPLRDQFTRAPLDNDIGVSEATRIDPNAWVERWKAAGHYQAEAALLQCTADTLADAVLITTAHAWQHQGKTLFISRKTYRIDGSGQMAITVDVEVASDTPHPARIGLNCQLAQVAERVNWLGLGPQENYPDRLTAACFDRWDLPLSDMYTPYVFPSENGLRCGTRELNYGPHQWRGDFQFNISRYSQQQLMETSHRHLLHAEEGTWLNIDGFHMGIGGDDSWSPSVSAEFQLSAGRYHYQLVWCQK
structure (smiles),measurement,setting,value
O=C(/C=C/c1ccc(F)cc1)N1CCN(S(=O)(=O)/C=C/c2ccccc2)CC1,IC50,[1],> 80 µM (inactive)
same,IC50,[2],0.00359 µM (active)
same,IC50,[3],0.00675 µM (active)
NC(=O)c1cccnc1 [NIACINAMIDE],IC50,[4],> 40 µM (inactive)
same,IC50,[5],> 40 µM (inactive)
same,IC50,[6],> 33.3 µM (inactive)
CN1c2ccc(-c3cccc(F)c3)cc2[C@H]2[C@H](CCN2C(=O)CCCCCCN)[C@H]1CO,AC50,[7],> 52 µM (inactive)
same,AC50,[8],13 µM (active)
O=C(NCc1nc2ccccc2[nH]1)C1=C[C@@H](c2ccc(Br)cc2)C[C@@H](OCCCCO)O1,IC50,[9],0.551 µM (active)
same,IC50,[10],0.27 µM (active)
same,IC50,[11],83.3 µM (inactive)
same,IC50,[12],48.4 µM (inactive)
CC(C)(C)c1nnc(NC(=O)CCS(=O)(=O)c2ccccc2)s1,AC50,[13],4.6 µM (active)
same,EC50,[14],1.09 µM (active)
same,AC50,[15],48.2 µM (active)
same,AC50,[16],25 µM (active)
same,EC50,[17],> 150 µM (inactive)
same,AC50,[18],50.7 µM (active)
same,AC50,[19],> 52 µM (inactive)
same,AC50,[20],> 100 µM (inactive)
same,AC50,[21],4.22 µM (active)
same,AC50,[22],> 100 µM (inactive)
O=c1c2cc([N+](=O)[O-])ccc2nc(CN2CCNCC2)n1-c1ccccc1,IC50,[23],< 0.168 µM (active)
same,IC50,[24],0.15 µM (active)
CO[C@@H]1CN(C)C(=O)c2ccc(NC(=O)C3CC3)cc2OC[C@@H](C)N(Cc2cc(F)ccc2F)C[C@H]1C,AC50,[25],0.957 µM (active)
same,AC50,[26],2.08 µM (active)
same,AC50,[27],1.22 µM (active)
same,AC50,[28],5.77 µM (active)
same,AC50,[29],76.2 µM (active)
same,AC50,[30],1.79 µM (active)
COCCNC(=O)C[C@@H]1CC[C@H]2[C@H](COc3ccc(NC(=O)Nc4cccc(F)c4)cc3C(=O)N2C)O1,AC50,[31],> 30 µM (inactive)
